Experimental data taken from patent publication US20110182888A1, “Administration of an Inhibitor of HDAC, an Inhibitor of HER-2, and a Selective Estrogen Receptor Modulator” (priority 2008, published 2011).

What was measured:
[1] = system: erbB2-overexpressing breast cancer cells; assay: cell proliferation (MTS) assays, erbB2-overexpressing vs basal breast cancer cells; format: cell-based, human; conditions: MTS assay; erbB2-overexpressing breast cancer cells compared to basal cells
From the text: (§1) SNDX-275 had little effect on apoptosis induction and cell cycle progression in basal breast cancer MDA-MB-468, MDA-MB-231, and BT20 cells. […] Moreover, elevated expression of erbB3 via transfection with erbB3-containing expression vector abrogated SNDX-275-induced inactivation of the downstream signaling, apoptosis, and cell cycle arrest, whereas knockdown of erbB3 and/or erbB2 expression with specific shRNAs enhanced the efficacy of SNDX-275-induced inactivation of the downstream signaling, apoptosis, and cell cycle arrest in SKBR3 and BT474 cells.

SKBR3 and BT474 cells = assay: erbB3 overexpression or erbB3/erbB2 shRNA knockdown and SNDX-275 response; format: cell-based, human
From the text: as §1

[2] = system: basal breast cancer MDA-MB-468, MDA-MB-231, and BT20 cells; assay: apoptosis induction and cell cycle progression in basal breast cancer cells; format: cell-based, human; conditions: MDA-MB-468, MDA-MB-231, BT20 cells
From the text: as §1

[3] = system: erbB2-overexpressing SKBR3, BT474, and MDA-MB-453 cells; assay: Apoptotic-ELISA, western blots on PARP cleavage and caspase-3, -8, -9 activation, flow cytometry in erbB2-overexpressing cells; format: cell-based, human; conditions: SNDX-275 5 μM; SKBR3, BT474, MDA-MB-453 cells
From the text: as §1

[4] = system: human breast cancer cells; conditions: through induction of TGFβ type II receptor or TRAIL expression, or degradation of DNMT1; cited from earlier work
[5] = system: P-erbB3, P-erbB2, P-MAPK, P-Akt, erbB3 and erbB2 in SKBR3, BT474 and MDA-MB-453 cells; assay: erbB receptor and downstream signaling levels upon SNDX-275 treatment; format: cell-based, human
From the text: as §1

With `Nc1ccccc1NC(=O)c1ccc(CNC(=O)OCc2cccnc2)cc1` [SNDX-275, N-(2-aminophenyl)-4-(N-(pyridin-3-ylmethoxycarbonyl)aminomethyl)benzamide] the growth inhibition [1] was “much stronger growth inhibition”, the “efficacy of SNDX-275-induced inactivation of downstream signaling, apoptosis, and cell cycle arrest with erbB3 and/or erbB2 knockdown” value (SKBR3 and BT474 cells; specific shRNAs, SKBR3 and BT474 cells) was “enhanced” and the “SNDX-275-induced inactivation of downstream signaling, apoptosis, and cell cycle arrest with elevated erbB3 expression” value (SKBR3 and BT474 cells; transfection with erbB3-containing expression vector) was “abrogated”. For the same compound, the “apoptosis induction and cell cycle progression” value [2] was “little effect”, the “apoptosis and cell cycle arrest” value [3] was “induced apoptosis and cell cycle G1 arrest” and the proliferation and apoptosis [4] was “inhibit proliferation and induce apoptosis”. The erbB2 receptor [5] was “lesser reduction”, the erbB3 protein [5] was “rapid decrease” and the “levels of P-erbB3, P-erbB2, P-MAPK, and P-Akt” value [5] was “significantly decreased”.
